Results as given in patent US9708314B2, “Heterocyclic amide compound” (NISSAN CHEMICAL INDUSTRIES, LTD., priority 2013, dated 2017).

Columns and labels:
Type in all cases: in vivo
[1] = system: transplanted Oryza sativa; assay: Test Example 1: effect on crop, application before weed generation in submerged conditions; conditions: Application herbicide amount 320 g/ha; Seventeenth Table
Summary of the method: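 Water-diluted emulsion formulation is applied onto flood water (4 cm deep) covering alluvial soil on the day weed seeds are sown, after transplanting 2.5 leaf stage rice. Rates are expressed per hectare. Injury or control is graded 0–5 three weeks later.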

[2] = system: Cyperus difformis; assay: Test Example 3: herbicidal effect by application to foliage (Wagner pot, water depth 0.1-0.5 cm); conditions: Nineteenth Table; application herbicide amount 320 g/ha
Summary of the method: (§1)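 Greenhouse pot test, 25–30 °C, alluvial soil. Sown seedlings grown 14 days then sprayed on leaves and stems with emulsion diluted to target g/ha. Rating at 3 weeks, 0–5 scale (0 ≤5%, 5 ≥90%).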

[3] = system: Echinochloa crus-galli var. crus-galli; assay: as above; conditions: Nineteenth Table; application herbicide amount 320 g/ha
Summary of the method: as §1

[4] = system: Leptochloa chinensis; assay: as above; conditions: Nineteenth Table; application herbicide amount 320 g/ha
Summary of the method: as §1

[5] = system: Beta vulgaris ssp. vulgaris; assay: Test Example 4: effect on crop by application to foliage (diluvial soil, plastic box); conditions: application to foliage, application herbicide amount 320 g/ha
Summary of the method: (§2)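 Greenhouse plants (25° C. to 30° C., 14 d, diluvial soil) receive a foliar spray of water-diluted emulsifiable formulation at defined g/ha. Grading after 3 weeks uses a six-step herbicidal-ratio scale, with 4 covering 70% to <90% and 1 covering 5% to <20%.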

[6] = system: Brassica campestris L.; assay: as above; conditions: application to foliage, application herbicide amount 320 g/ha
Summary of the method: as §2

[7] = system: Glycine max; assay: as above; conditions: application to foliage, application herbicide amount 320 g/ha
Summary of the method: as §2

[8] = system: Zea mays; assay: as above; conditions: application to foliage, application herbicide amount 320 g/ha
Summary of the method: as §2

[9] = system: directly sowed Oryza sativa; assay: as above; conditions: application to foliage, application herbicide amount 320 g/ha
Summary of the method: as §2

Row | SMILES | a: transplanted Oryza sativa (effect on crop grade) [1] | E (Cyperus difformis) herbicidal ratio grade [2] | H (Echinochloa crus-galli var. crus-galli) herbicidal ratio grade [3] | D (Leptochloa chinensis) herbicidal ratio grade [4] | f (Beta vulgaris ssp. vulgaris) effect on crop [5] | g (Brassica campestris L.) effect on crop [6] | c (Glycine max) effect on crop [7] | b (Zea mays) effect on crop [8] | d (directly sowed Oryza sativa) effect on crop [9]
1 | Cc1nnc(NC(=O)c2ccc(C(F)(F)F)n3c(SC(C)C)nnc23)o1 [1-033] | 0 (Herbicidal ratio of 5% or less (almost no effect)) | 5 (Herbicidal ratio of 90% or more (almost completely withered)) | 5 (Herbicidal ratio of 90% or more (almost completely withered)) | 5 (Herbicidal ratio of 90% or more (almost completely withered)) | 5 (Herbicidal ratio of 90% or more (almost completely withered)) | 4 (Herbicidal ratio of 70% or more and less than 90%) | 2 (Herbicidal ratio of 20% or more and less than 40%) | 0 (Herbicidal ratio of 5% or less (almost no effect)) | 3 (Herbicidal ratio of 40% or more and less than 70%)
2 | CC[S+]([O-])c1nnc2c(C(=O)Nc3nnc(C)o3)ccc(C(F)(F)F)n12 (stereo not drawn) [1-034] | 3 (Herbicidal ratio of 40% or more and less than 70%) | 5 (Herbicidal ratio of 90% or more (almost completely withered)) | 5 (Herbicidal ratio of 90% or more (almost completely withered)) | 5 (Herbicidal ratio of 90% or more (almost completely withered)) | 5 (Herbicidal ratio of 90% or more (almost completely withered)) | 4 (Herbicidal ratio of 70% or more and less than 90%) | 1 (Herbicidal ratio of 5% or more and less than 20%) | 5 (Herbicidal ratio of 90% or more (almost completely withered)) | 4 (Herbicidal ratio of 70% or more and less than 90%)
3 | Cc1nnc(NC(=O)c2ccc(C(F)(F)F)n3c([S+]([O-])C(C)C)nnc23)o1 (stereo not drawn) [1-035] | 2 (Herbicidal ratio of 20% or more and less than 40%) | 5 (Herbicidal ratio of 90% or more (almost completely withered)) | 5 (Herbicidal ratio of 90% or more (almost completely withered)) | 5 (Herbicidal ratio of 90% or more (almost completely withered)) | 5 (Herbicidal ratio of 90% or more (almost completely withered)) | 3 (Herbicidal ratio of 40% or more and less than 70%) | 3 (Herbicidal ratio of 40% or more and less than 70%) | 4 (Herbicidal ratio of 70% or more and less than 90%) | 4 (Herbicidal ratio of 70% or more and less than 90%)
4 | Cc1nnc(NC(=O)c2ccc(C(F)(F)F)n3c(C[S+](C)[O-])nnc23)o1 (stereo not drawn) [1-036] | 4 (Herbicidal ratio of 70% or more and less than 90%) | 5 (Herbicidal ratio of 90% or more (almost completely withered)) | 5 (Herbicidal ratio of 90% or more (almost completely withered)) | 5 (Herbicidal ratio of 90% or more (almost completely withered)) | 5 (Herbicidal ratio of 90% or more (almost completely withered)) | 5 (Herbicidal ratio of 90% or more (almost completely withered)) | 3 (Herbicidal ratio of 40% or more and less than 70%) | 3 (Herbicidal ratio of 40% or more and less than 70%) | 4 (Herbicidal ratio of 70% or more and less than 90%)
5 | Cc1nnc(NC(=O)c2ccc(C(F)(F)F)n3c(CS(C)(=O)=O)nnc23)o1 [1-037] | 0 (Herbicidal ratio of 5% or less (almost no effect)) | 5 (Herbicidal ratio of 90% or more (almost completely withered)) | 5 (Herbicidal ratio of 90% or more (almost completely withered)) | 5 (Herbicidal ratio of 90% or more (almost completely withered)) | 5 (Herbicidal ratio of 90% or more (almost completely withered)) | 4 (Herbicidal ratio of 70% or more and less than 90%) | 1 (Herbicidal ratio of 5% or more and less than 20%) | 0 (Herbicidal ratio of 5% or less (almost no effect)) | 3 (Herbicidal ratio of 40% or more and less than 70%)
6 | Cc1nnc(NC(=O)c2ccc(C(F)(F)F)n3c(C[S+]([O-])CC(F)(F)F)nnc23)o1 (stereo not drawn) [1-038] | 0 (Herbicidal ratio of 5% or less (almost no effect)) | 4 (Herbicidal ratio of 70% or more and less than 90%) | 5 (Herbicidal ratio of 90% or more (almost completely withered)) | 5 (Herbicidal ratio of 90% or more (almost completely withered)) | 5 (Herbicidal ratio of 90% or more (almost completely withered)) | 4 (Herbicidal ratio of 70% or more and less than 90%) | 0 (Herbicidal ratio of 5% or less (almost no effect)) | 0 (Herbicidal ratio of 5% or less (almost no effect)) | 4 (Herbicidal ratio of 70% or more and less than 90%)
7 | Cc1nnc(NC(=O)c2ccc(C(F)(F)F)n3c(S(C)(=O)=O)nnc23)o1 [1-040] | 1 (Herbicidal ratio of 5% or more and less than 20%) | 4 (Herbicidal ratio of 70% or more and less than 90%) | 4 (Herbicidal ratio of 70% or more and less than 90%) | 5 (Herbicidal ratio of 90% or more (almost completely withered)) | 5 (Herbicidal ratio of 90% or more (almost completely withered)) | 1 (Herbicidal ratio of 5% or more and less than 20%) | 0 (Herbicidal ratio of 5% or less (almost no effect)) | 0 (Herbicidal ratio of 5% or less (almost no effect)) | 1 (Herbicidal ratio of 5% or more and less than 20%)
8 | CCS(=O)(=O)c1nnc2c(C(=O)Nc3nnc(C)o3)ccc(C(F)(F)F)n12 [1-041] | 0 (Herbicidal ratio of 5% or less (almost no effect)) | 5 (Herbicidal ratio of 90% or more (almost completely withered)) | 4 (Herbicidal ratio of 70% or more and less than 90%) | 5 (Herbicidal ratio of 90% or more (almost completely withered)) | 5 (Herbicidal ratio of 90% or more (almost completely withered)) | 0 (Herbicidal ratio of 5% or less (almost no effect)) | 0 (Herbicidal ratio of 5% or less (almost no effect)) | 0 (Herbicidal ratio of 5% or less (almost no effect)) | 2 (Herbicidal ratio of 20% or more and less than 40%)
9 | Cc1ccc(-c2nnc3c(C(=O)Nc4nnc(C)o4)ccc(C(F)(F)F)n23)cc1 [1-043] | 3 (Herbicidal ratio of 40% or more and less than 70%) | 5 (Herbicidal ratio of 90% or more (almost completely withered)) | 5 (Herbicidal ratio of 90% or more (almost completely withered)) | 4 (Herbicidal ratio of 70% or more and less than 90%) | 5 (Herbicidal ratio of 90% or more (almost completely withered)) | 3 (Herbicidal ratio of 40% or more and less than 70%) | 2 (Herbicidal ratio of 20% or more and less than 40%) | 4 (Herbicidal ratio of 70% or more and less than 90%) | 2 (Herbicidal ratio of 20% or more and less than 40%)
10 | Cc1nnc(NC(=O)c2ccc(C(F)(F)F)n3c(-c4ccc(F)cc4)nnc23)o1 [1-044] | 1 (Herbicidal ratio of 5% or more and less than 20%) | 4 (Herbicidal ratio of 70% or more and less than 90%) | 5 (Herbicidal ratio of 90% or more (almost completely withered)) | 4 (Herbicidal ratio of 70% or more and less than 90%) | 5 (Herbicidal ratio of 90% or more (almost completely withered)) | 4 (Herbicidal ratio of 70% or more and less than 90%) | 0 (Herbicidal ratio of 5% or less (almost no effect)) | 0 (Herbicidal ratio of 5% or less (almost no effect)) | 3 (Herbicidal ratio of 40% or more and less than 70%)
